Reference: ChEMBL document CHEMBL1159290, “Longicin and goniothalamicinone: novel bioactive monotetrahydrofuran acetogenins from Asimina longifolia” (J Nat Prod, 1995)
In brackets after ≈: the same amount, converted by molar mass.

Legend:
[1] = test system: HT-29; test: Cytotoxicity against human HT-29 cells after 7 days by MTT assay; format: functional; conditions: for EC50: Homo sapiens, HT-29, 168 h, read-out: ED50 (the source's name)
[2] = test system: A549; test: Cytotoxicity against human A549 cells after 7 days by MTT assay; format: functional
[3] = test system: MCF7; test: Cytotoxicity against human MCF7 cells after 7 days by MTT assay; format: functional; conditions: MCF7, 168 h, read-out: ED50 (the source's name)
[4] = Toxicity to brine shrimp; format: organism-based; conditions: artemia, in vivo
[5] = test system: MIA PaCa-2; test: Cytotoxicity against human MIAPaCa2 cells after 7 days by MTT assay; format: functional; conditions: for EC50: Homo sapiens, MIA PaCa-2, 168 h, read-out: ED50 (the source's name)
[6] = test system: A498; test: Cytotoxicity against human A498 cells after 7 days by MTT assay; format: functional; conditions: for EC50: Homo sapiens, A498, 168 h, read-out: ED50 (the source's name)
[7] = test system: PC-3; test: Cytotoxicity against human PC3 cells after 7 days by MTT assay; format: functional; conditions: PC-3, 168 h, read-out: ED50 (the source's name)

Compound | EC50 [1] [µg/mL] | ED50 [2] | EC50 [3] [µg/mL] | LC50 [4] [µg/mL] | ED50 [5] | EC50 [6] [µg/mL] | EC50 [7] [µg/mL] | ED50 [1] | EC50 [5] [µg/mL] | EC50 ([2]; Homo sapiens, A549, 168 h, read-out: ED50 (the source's name)) [µg/mL] | ED50 [6] [×10⁻⁴ ug/ml]
CCCCCCCCCCCCCC[C@H](O)[C@H]1CC[C@H]([C@H](O)CC[C@H](O)CCCCC[C@@H]2CC(CC(C)=O)C(=O)O2)O1 (mixture of isomers) | 0.235 | 1.23 ×10⁻⁴ ug/ml | 0.186 | 0.46 | 2.37 ×10⁻⁴ ug/ml | 0.172 | 0.201 |  |  |  | 
CCCCCCCCCCCCCC[C@@H](O)[C@H]1CC[C@H]([C@H](O)CC[C@H](O)CCCCC[C@@H]2CC(CC(C)=O)C(=O)O2)O1 (mixture of isomers) |  | 2.06 ×10⁻⁵ ug/ml | 0.967 | 0.14 |  | 0.291 | 0.137 | 4.05 ×10⁻⁴ ug/ml | 0.00133 |  | 
COc1cccc2c1C(=O)c1c(O)c3c(c(O)c1C2=O)C[C@@](O)(C(=O)CO)C[C@@H]3O[C@H]1C[C@H](N)[C@H](O)[C@H](C)O1 [DOXORUBICIN] | 0.0116 (≈ 21.3 nM) |  | 0.329 (≈ 605 nM) |  |  | 0.00197 (≈ 3.62 nM) |  |  | 0.00195 (≈ 3.59 nM) | 0.00341 (≈ 6.27 nM) | 
CCCCCCCCCCCCCC[C@H](O)[C@H]1CC[C@H]([C@H](O)CC[C@H](O)CCCCC[C@@H](O)CC2=C[C@H](C)OC2=O)O1 [LONGICIN] |  | 1.77 ×10⁻⁶ ug/ml | > 1 | 0.11 (≈ 184 nM) | 1.25 ×10⁻⁹ ug/ml |  | 0.00426 (≈ 7.14 nM) | 2.4 ×10⁻⁵ ug/ml |  |  | 1.99
